Data taken from patent publication US7138361B2, “Herbicidal heterocycles” (E. I. du Pont de Nemours and Company, priority 2000, dated 2006).

Tests used:
Assay in all cases: Test C preemergence
Assay type in all cases: in vivo
[1] = system: crabgrass (Digitaria sanguinalis); details: for Plant response rating (0 to 100), Crabgrass: visual evaluation after 12 to 14 days
How it was run: (§1)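 Test chemicals, formulated in a non-phytotoxic solvent mixture with surfactant, were applied preemergence to planted seeds or postemergence to plants 2 to 18 cm tall (1- to 4-leaf stage). After 12 to 14 days in a greenhouse, injury was visually rated against untreated controls on a 0–100 scale.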

[2] = system: goosegrass (Eleusine indica); details: for Plant response rating (0 to 100), Goosegrass: visual evaluation after 12 to 14 days
How it was run: as §1

[3] = system: morningglory (Ipomoea hederacea); details: for Plant response rating (0 to 100), Morningglory: visual evaluation after 12 to 14 days
How it was run: as §1

[4] = system: yellow nutsedge (Cyperus esculentus); details: for Plant response rating (0 to 100), Nutsedge: visual evaluation after 12 to 14 days
How it was run: as §1

Sunflower = details: scale 0 to 100
[5] = Rate 62 g/ha, scale 0 to 100, 0 no effect, 100 complete control
[6] = Rate 125 g/ha, scale 0 to 100, 0 no effect, 100 complete control
[7] = preemergence, Rate 31 g/ha, scale 0 to 100
[8] = preemergence, Rate 250 g/ha, scale 0 to 100, 0 no effect, 100 complete control
[9] = Preemergence, Rate 500 g/ha, scale 0 to 100
[10] = preemergence, Rate 125 g/ha, scale 0 to 100, 0 no effect, 100 complete control
[11] = preemergence, Rate 62 g/ha, scale 0 to 100

COC(=O)c1cccc(N2CCC(n3ccc(C(C)(C)C)n3)C2=O)c1 (stereo not shown) [Compound 73]
0: Plant response rating, Nutsedge [4, 5] | Plant response rating, Nutsedge [4, 7]
60: Plant response rating, Goosegrass [2, 7]
80: Plant response rating, Goosegrass [2, 5]
50: Plant response rating, Nutsedge [4, 8]
90: Plant response rating, Crabgrass [1, 5] | Plant response rating, Crabgrass [1, 7]
100: Plant response rating, Crabgrass [1, 6] | Plant response rating (0 to 100), Crabgrass ([1]; preemergence, Rate 250 g/ha) | Plant response rating, Goosegrass [2, 6] | Plant response rating (0 to 100), Goosegrass ([2]; preemergence, Rate 250 g/ha) | Plant response rating, Morningglory [3, 8]
40: Plant response rating, Sunflower (Sunflower; Rate 31 g/ha)
30: Plant response rating, Morningglory [3, 5] | Plant response rating, Morningglory [3, 6] | Plant response rating, Morningglory [3, 7] | Plant response rating, Nutsedge [4, 6]

CC(C)(C)c1ccn(C2CCN(c3cccc(OC(F)(F)F)c3)C2=O)n1 (stereo not shown) [Compound 49]
40: Plant response rating, Nutsedge [4, 5]
30: Plant response rating, Morningglory [3, 9] | Plant response rating, Nutsedge [4, 7]
0: Plant response rating, Crabgrass [1, 7] | Plant response rating, Goosegrass [2, 7] | Plant response rating, Morningglory [3, 5] | Plant response rating, Morningglory [3, 7] | Plant response rating (0 to 100), Morningglory ([3]; preemergence, Rate 250 g/ha) | Plant response rating, Morningglory [3, 10] | Plant response rating, Nutsedge [4, 9] | Plant response rating (0 to 100), Nutsedge ([4]; preemergence, Rate 250 g/ha) | Plant response rating, Sunflower (Sunflower; Rate 31 g/ha)
100: Plant response rating, Crabgrass [1, 9] | Plant response rating, Crabgrass [1, 5] | Plant response rating (0 to 100), Crabgrass ([1]; preemergence, Rate 250 g/ha) | Plant response rating, Crabgrass [1, 10] | Plant response rating, Goosegrass [2, 9] | Plant response rating, Goosegrass [2, 5] | Plant response rating (0 to 100), Goosegrass ([2]; preemergence, Rate 250 g/ha) | Plant response rating, Goosegrass [2, 10]
50: Plant response rating, Nutsedge [4, 10]

CCCC(C)c1ccn(C2CCN(c3cccc(OCC)c3)C2=O)n1 (stereo not shown) [Compound 129]
100: Plant response rating, Crabgrass [1, 6] | Plant response rating, Crabgrass [1, 11] | Plant response rating (0 to 100), Crabgrass ([1]; preemergence, Rate 500 g/ha) | Plant response rating, Crabgrass [1, 8] | Plant response rating, Goosegrass [2, 6] | Plant response rating, Goosegrass [2, 11] | Plant response rating (0 to 100), Goosegrass ([2]; preemergence, Rate 500 g/ha) | Plant response rating, Goosegrass [2, 8]
50: Plant response rating, Nutsedge [4, 8]
0: Plant response rating, Morningglory [3, 6] | Plant response rating, Morningglory [3, 11] | Plant response rating (0 to 100), Morningglory ([3]; preemergence, Rate 500 g/ha) | Plant response rating, Nutsedge [4, 6] | Plant response rating, Nutsedge [4, 11] | Plant response rating, Sunflower (Sunflower; Rate 62 g/ha)
90: Plant response rating (0 to 100), Nutsedge ([4]; preemergence, Rate 500 g/ha)

CCC(CC)c1ccn(C2CCN(c3cccc(OC(C)C)c3)C2=O)n1 (stereo not shown) [Compound 84]
80: Plant response rating, Goosegrass [2, 6]
0: Plant response rating, Morningglory [3, 11] | Plant response rating, Nutsedge [4, 6] | Plant response rating, Nutsedge [4, 11] | Plant response rating (0 to 100), Nutsedge ([4]; preemergence, Rate 500 g/ha) | Plant response rating, Nutsedge [4, 8] | Plant response rating, Sunflower (Sunflower; Rate 62 g/ha)
100: Plant response rating, Crabgrass [1, 6] | Plant response rating (0 to 100), Crabgrass ([1]; preemergence, Rate 250 g/ha) | Plant response rating (0 to 100), Crabgrass ([1]; preemergence, Rate 500 g/ha) | Plant response rating (0 to 100), Goosegrass ([2]; preemergence, Rate 500 g/ha)
90: Plant response rating, Crabgrass [1, 11] | Plant response rating (0 to 100), Goosegrass ([2]; preemergence, Rate 250 g/ha)
20: Plant response rating, Goosegrass [2, 11] | Plant response rating, Morningglory [3, 6] | Plant response rating (0 to 100), Morningglory ([3]; preemergence, Rate 500 g/ha) | Plant response rating, Morningglory [3, 8]

CCCC(C)c1ccn(C2CCN(c3cccc(OC)c3)C2=O)n1 (stereo not shown) [Compound 99]
20: Plant response rating, Morningglory [3, 6] | Plant response rating (0 to 100), Morningglory ([3]; preemergence, Rate 500 g/ha) | Plant response rating, Morningglory [3, 8]
100: Plant response rating, Crabgrass [1, 6] | Plant response rating, Crabgrass [1, 11] | Plant response rating (0 to 100), Crabgrass ([1]; preemergence, Rate 500 g/ha) | Plant response rating, Crabgrass [1, 8] | Plant response rating (0 to 100), Goosegrass ([2]; preemergence, Rate 500 g/ha)
0: Plant response rating, Morningglory [3, 11] | Plant response rating, Nutsedge [4, 6] | Plant response rating, Nutsedge [4, 11] | Plant response rating, Nutsedge [4, 8] | Plant response rating, Sunflower (Sunflower; Rate 62 g/ha)
80: Plant response rating, Goosegrass [2, 6] | Plant response rating, Goosegrass [2, 11]
90: Plant response rating, Goosegrass [2, 8] | Plant response rating (0 to 100), Nutsedge ([4]; preemergence, Rate 500 g/ha)

CCCC(C)c1ccn(C2CCN(c3cccc(C(F)(F)F)c3)C2=O)n1 (stereo not shown) [Compound 100]
90: Plant response rating, Goosegrass [2, 6]
100: Plant response rating, Crabgrass [1, 6] | Plant response rating, Crabgrass [1, 11] | Plant response rating (0 to 100), Crabgrass ([1]; preemergence, Rate 500 g/ha) | Plant response rating, Crabgrass [1, 8] | Plant response rating (0 to 100), Goosegrass ([2]; preemergence, Rate 500 g/ha) | Plant response rating, Goosegrass [2, 8]
80: Plant response rating, Goosegrass [2, 11]
0: Plant response rating, Morningglory [3, 6] | Plant response rating, Morningglory [3, 11] | Plant response rating (0 to 100), Morningglory ([3]; preemergence, Rate 500 g/ha) | Plant response rating, Morningglory [3, 8] | Plant response rating, Nutsedge [4, 6] | Plant response rating, Nutsedge [4, 11] | Plant response rating (0 to 100), Nutsedge ([4]; preemergence, Rate 500 g/ha) | Plant response rating, Nutsedge [4, 8] | Plant response rating, Sunflower (Sunflower; Rate 62 g/ha)

CCCC(C)c1ccn(C2OCN(c3cccc(C(F)(F)F)c3)C2=O)n1 (stereo not shown) [Compound 89]
95: Plant response rating, Goosegrass [2, 11]
0: Plant response rating, Morningglory [3, 6] | Plant response rating, Morningglory [3, 11] | Plant response rating (0 to 100), Morningglory ([3]; preemergence, Rate 500 g/ha) | Plant response rating, Morningglory [3, 8] | Plant response rating, Nutsedge [4, 6] | Plant response rating, Nutsedge [4, 11] | Plant response rating (0 to 100), Nutsedge ([4]; preemergence, Rate 500 g/ha) | Plant response rating, Nutsedge [4, 8] | Plant response rating, Sunflower (Sunflower; Rate 62 g/ha)
100: Plant response rating, Crabgrass [1, 6] | Plant response rating (0 to 100), Crabgrass ([1]; preemergence, Rate 500 g/ha) | Plant response rating, Crabgrass [1, 8] | Plant response rating, Goosegrass [2, 6] | Plant response rating (0 to 100), Goosegrass ([2]; preemergence, Rate 500 g/ha) | Plant response rating, Goosegrass [2, 8]
20: Plant response rating, Crabgrass [1, 11]

CCC(CC)c1ccn(C2CCN(c3cccc(OC)c3)C2=O)n1 (stereo not shown) [Compound 96]
0: Plant response rating, Morningglory [3, 6] | Plant response rating, Morningglory [3, 11] | Plant response rating, Nutsedge [4, 6] | Plant response rating, Nutsedge [4, 11] | Plant response rating, Sunflower (Sunflower; Rate 62 g/ha)
20: Plant response rating (0 to 100), Morningglory ([3]; preemergence, Rate 500 g/ha) | Plant response rating, Morningglory [3, 8]
100: Plant response rating, Crabgrass [1, 6] | Plant response rating, Crabgrass [1, 11] | Plant response rating (0 to 100), Crabgrass ([1]; preemergence, Rate 500 g/ha) | Plant response rating, Crabgrass [1, 8] | Plant response rating, Goosegrass [2, 6] | Plant response rating, Goosegrass [2, 11] | Plant response rating (0 to 100), Goosegrass ([2]; preemergence, Rate 500 g/ha) | Plant response rating, Goosegrass [2, 8]
70: Plant response rating (0 to 100), Nutsedge ([4]; preemergence, Rate 500 g/ha)
10: Plant response rating, Nutsedge [4, 8]
